Laboratory results from patent US20250361526A1, “[…] CYTOMEGALOVIRUS-DERIVED TOOL VIRUS, METHOD OF PRODUCING THE SAME AND APPLICATIONS THEREOF” (WUHAN INSTITUTE OF VIROLOGY, CHINESE ACADEMY OF SCIENCES, priority 2022, published 2025).

Tested on: MCMV
Assay: In vivo challenge of newborn ICR mice with K181-Nluc/Green, live and organ imaging
Protocol: To verify whether recombinant virus K181-Nluc/Green can be applied to evaluate potential drugs, neutralizing antibodies, vaccines, etc. against CMV in vivo. The inventors of the present invention carried out in vivo challenge test with ICR mice in the Animal Biosafety Laboratory (ABSL-2). […] Twelve newborn ICR mice were divided into three groups: control group (PBS), placebo group (DMSO) and ganciclovir (GCV) treatment group. By intracerebroventricular injection (I.C.), 1 μl (4×10^5 PFU) K181-Nluc/Green virus solution was injected into the lateral ventricles of newborn mice (P0) to establish the brain infection model of MCMV virus. After 1 day of challenge, 50 mg/kg GCV was given to mice every day until the 7th day after infection, and the Nanoluc substrate (Cat. #N1120, Promega, USA) was intraperitoneally injected on the 1st, 3rd, 5th, 7th, 9th, 11th and 14th days after infection.
In addition, seven days after the mice were infected, one mouse was randomly selected from the placebo (DMSO) group and the GCV treatment group, and Nanoluc substrate was injected intraperitoneally. […] The organs and tissues of mice were taken, and the content of MCMV virus in organs and tissues of mice in different groups was evaluated by fluorescence activity.

Nc1nc(O)c2ncn(COC(CO)CO)c2n1 [GCV, ganciclovir]
Nluc or GFP signals in different organs of mice (I.C. 4×10^5 PFU K181-Nluc/Green, 50 mg/kg GCV every day, 7 days after infection (FIGS. 14 and 15)): no detection of apparent Nluc or GFP signals | MCMV replication and spreading in vivo (I.C. K181-Nluc/Green, 50 mg/kg GCV every day until the 7th day): effectively reduce the MCMV replication and spreading in vivo
